Measured values: US5110800A, “Derivatives of erythromycylamine” (Eli Lilly and Company, priority 1989, dated 1992)
In brackets after ≈: the same amount, converted by molar mass. Like-named read-outs stand apart in the source and are kept apart here.

Assays:
Experiment in all cases: MIC, standard agar-dilution assay
Assay type in all cases: cell-based
[1] = test system: Staphylococcus aureus V41; details: Staphylococcus aureus
Excerpt: (§1) In addition to excellent in vitro activity against erythromycin-sensitive bacteria, several members of this new series have shown in vitro activity against erythromycin-resistant strains. These include strains which are inducibly-resistant to erythromycin (S. aureus V41 and X400 and S. epidermidis EPI1) and even strains which are constitutively-resistant (S. epidermidis 270).

[2] = test system: Staphylococcus aureus X400; details: Staphylococcus aureus
Excerpt: as §1

[3] = test system: Staphylococcus aureus X1.1; details: Staphylococcus aureus, X1.1, read-out: minimal inhibitory concentration (MIC)
[4] = test system: Staphylococcus epidermidis 222; details: Staphylococcus epidermidis, 222, read-out: minimal inhibitory concentration (MIC)
[5] = test system: Streptococcus sp. group D X66; details: Streptococcus, read-out: minimal inhibitory concentration (MIC)
[6] = test system: Streptococcus sp. group D 2041; details: Streptococcus, read-out: minimal inhibitory concentration (MIC)
Escherichia coli EC14 = details: Escherichia coli
[7] = test system: Klebsiella pneumoniae X68; details: Klebsiella pneumoniae, X68, agar dilution, read-out: minimal inhibitory concentration (MIC)
[8] = test system: Staphylococcus epidermidis 270; details: Staphylococcus epidermidis, 270; Table IV; constitutively erythromycin-resistant; read-out: minimal inhibitory concentration (MIC)
Excerpt: as §1

[9] = test system: Haemophilus influenzae C.L.; details: Haemophilus influenzae, read-out: minimal inhibitory concentration (MIC)
[10] = test system: Streptococcus pyogenes C203; details: Streptococcus pyogenes, C203, read-out: minimal inhibitory concentration (MIC)
[11] = EC14, Table IV, agar dilution, read-out: minimal inhibitory concentration (MIC)
[12] = V41, Table IV, penicillin-resistant strain, inducibly erythromycin-resistant, read-out: minimal inhibitory concentration (MIC)
[13] = X400, Table IV, methicillin-resistant strain, inducibly erythromycin-resistant, read-out: minimal inhibitory concentration (MIC)
[14] = EC14, read-out: minimal inhibitory concentration (MIC)

Row | MIC [1, 12] | MIC [2, 13] | MIC [8] | Structure (SMILES) | MIC ([7]; Table IV) | further results
1 | – | – | – | CC[C@H]1OC(=O)[C@H](C)[C@@H](O[C@H]2C[C@@](C)(OC)[C@@H](O)[C@H](C)O2)[C@H](C)[C@@H](O[C@@H]2O[C@H](C)C[C@H](N(C)C)[C@H]2O)[C@](C)(O)C[C@@H](C)[C@H]2[C@H](C)[C@@H](OCN2C(C)C)[C@]1(C)O [Compound 58, 9-Deoxo-9-[isopropylamino]-9,11-(N,O)-cyclic Methylene Adduct of Erythromycin] | – | MIC ([1]; V41, read-out: minimal inhibitory concentration (MIC)): > 128 µg/mL; MIC ([2]; X400, read-out: minimal inhibitory concentration (MIC)): > 128 µg/mL
2 | – | – | – | CC[C@H]1OC(=O)[C@H](C)[C@@H](O[C@H]2C[C@@](C)(OC)[C@@H](O)[C@H](C)O2)[C@H](C)[C@@H](O[C@@H]2O[C@H](C)C[C@H](N(C)C)[C@H]2O)[C@](C)(O)C[C@@H](C)[C@H](NCC#Cc2ccccc2)[C@H](C)[C@@H](O)[C@]1(C)O [Compound 18, 9-Deoxo-9-[(3-phenyl-2-propynyl)amino]erythromycin] | > 128 µg/mL | MIC [3]: 1 µg/mL (≈ 1.18 µM); MIC [4]: 0.5 µg/mL (≈ 0.589 µM); MIC [5]: 0.25 µg/mL (≈ 0.294 µM); MIC [6]: 1 µg/mL (≈ 1.18 µM); MIC (Escherichia coli EC14; [11]): > 128 µg/mL
3 | – | – | – | CCCCCCCCN[C@@H]1[C@H](C)[C@@H](O)[C@](C)(O)[C@@H](CC)OC(=O)[C@H](C)[C@@H](O[C@H]2C[C@@](C)(OC)[C@@H](O)[C@H](C)O2)[C@H](C)[C@@H](O[C@@H]2O[C@H](C)C[C@H](N(C)C)[C@H]2O)[C@](C)(O)C[C@H]1C [Compound 8, 9-Deoxo-9-(n-octylamino)erythromycin] | > 128 µg/mL | MIC (Escherichia coli EC14; [11]): > 128 µg/mL
4 | > 128 µg/mL | > 128 µg/mL | > 128 µg/mL | CCCCCCCN[C@@H]1[C@H](C)[C@@H](O)[C@](C)(O)[C@@H](CC)OC(=O)[C@H](C)[C@@H](O[C@H]2C[C@@](C)(OC)[C@@H](O)[C@H](C)O2)[C@H](C)[C@@H](O[C@@H]2O[C@H](C)C[C@H](N(C)C)[C@H]2O)[C@](C)(O)C[C@H]1C [Compound 7, 9-Deoxo-9-(n-heptylamino)erythromycin] | > 128 µg/mL | –
5 | > 128 µg/mL | > 128 µg/mL | > 128 µg/mL | CC[C@H]1OC(=O)[C@H](C)[C@@H](O[C@H]2C[C@@](C)(OC)[C@@H](O)[C@H](C)O2)[C@H](C)[C@@H](O[C@@H]2O[C@H](C)C[C@H](N(C)C)[C@H]2O)[C@](C)(O)C[C@@H](C)[C@H](NCCCCCO)[C@H](C)[C@@H](O)[C@]1(C)O [Compound 21, 9-Deoxo-9-[(5-hydroxypentyl)amino]erythromycin] | – | –
6 | – | – | – | CCCCC/C=C/CCCN[C@@H]1[C@H](C)[C@@H](O)[C@](C)(O)[C@@H](CC)OC(=O)[C@H](C)[C@@H](O[C@H]2C[C@@](C)(OC)[C@@H](O)[C@H](C)O2)[C@H](C)[C@@H](O[C@@H]2O[C@H](C)C[C@H](N(C)C)[C@H]2O)[C@](C)(O)C[C@H]1C [Compound 14, 9-Deoxo-9-[(trans-dec-4-enyl)amino]erythromycin] | > 128 µg/mL | MIC [3]: 0.5 µg/mL (≈ 0.573 µM); MIC [4]: 0.25 µg/mL (≈ 0.286 µM); MIC [6]: 2 µg/mL (≈ 2.29 µM); MIC [9]: 2 µg/mL (≈ 2.29 µM); MIC (Escherichia coli EC14; [14]): 128 µg/mL (≈ 147 µM)
7 | – | – | > 128 µg/mL | CCC(CC)CN[C@@H]1[C@H](C)[C@@H](O)[C@](C)(O)[C@@H](CC)OC(=O)[C@H](C)[C@@H](O[C@H]2C[C@@](C)(OC)[C@@H](O)[C@H](C)O2)[C@H](C)[C@@H](O[C@@H]2O[C@H](C)C[C@H](N(C)C)[C@H]2O)[C@](C)(O)C[C@H]1C [Compound 12, 9-Deoxo-9-[(2-ethylbutyl)amino]erythromycin] | – | –
8 | > 128 µg/mL | > 128 µg/mL | > 128 µg/mL | CC[C@H]1OC(=O)[C@H](C)[C@@H](O[C@H]2C[C@@](C)(OC)[C@@H](O)[C@H](C)O2)[C@H](C)[C@@H](O[C@@H]2O[C@H](C)C[C@H](N(C)C)[C@H]2O)[C@](C)(O)C[C@@H](C)[C@H](NCCOCCOC)[C@H](C)[C@@H](O)[C@]1(C)O [Compound 25, 9-Deoxo-9-[[2-(2-methoxyethoxy)ethyl]amino]erythromycin] | – | –
9 | > 128 µg/mL | > 128 µg/mL | > 128 µg/mL | CC[C@H]1OC(=O)[C@H](C)[C@@H](O[C@H]2C[C@@](C)(OC)[C@@H](O)[C@H](C)O2)[C@H](C)[C@@H](O[C@@H]2O[C@H](C)C[C@H](N(C)C)[C@H]2O)[C@](C)(O)C[C@@H](C)[C@H](NCCC(C)C)[C@H](C)[C@@H](O)[C@]1(C)O [Compound 11, 9-Deoxo-9-[(3-methylbutyl)amino]erythromycin] | – | –
10 | > 128 µg/mL | > 128 µg/mL | > 128 µg/mL | CC[C@H]1OC(=O)[C@H](C)[C@@H](O[C@H]2C[C@@](C)(OC)[C@@H](O)[C@H](C)O2)[C@H](C)[C@@H](O[C@@H]2O[C@H](C)C[C@H](N(C)C)[C@H]2O)[C@](C)(O)C[C@@H](C)[C@H](NCC2CC=CCC2)[C@H](C)[C@@H](O)[C@]1(C)O (stereo partly shown) [Compound 15, 9-Deoxo-9-[(1-cyclohex-4-enylmethyl)amino]erythromycin] | – | –
11 | > 128 µg/mL | > 128 µg/mL | > 128 µg/mL | CCN[C@@H]1[C@H](C)[C@@H](O)[C@](C)(O)[C@@H](CC)OC(=O)[C@H](C)[C@@H](O[C@H]2C[C@@](C)(OC)[C@@H](O)[C@H](C)O2)[C@H](C)[C@@H](O[C@@H]2O[C@H](C)C[C@H](N(C)C)[C@H]2O)[C@](C)(O)C[C@H]1C [Compound 2, (9S)-9-Deoxo-9-(ethylamino)erythromycin] | – | –
12 | > 128 µg/mL | > 128 µg/mL | > 128 µg/mL | CC[C@H]1OC(=O)[C@H](C)[C@@H](O[C@H]2C[C@@](C)(OC)[C@@H](O)[C@H](C)O2)[C@H](C)[C@@H](O[C@@H]2O[C@H](C)C[C@H](N(C)C)[C@H]2O)[C@](C)(O)C[C@@H](C)[C@H](NCC(C)(C)CO)[C@H](C)[C@@H](O)[C@]1(C)O [Compound 22, 9-Deoxo-9-[(3-hydroxy-2,2-dimethylpropyl)amino]erythromycin] | – | –
13 | – | – | – | CCCCC/C=C\CCCN[C@@H]1[C@H](C)[C@@H](O)[C@](C)(O)[C@@H](CC)OC(=O)[C@H](C)[C@@H](O[C@H]2C[C@@](C)(OC)[C@@H](O)[C@H](C)O2)[C@H](C)[C@@H](O[C@@H]2O[C@H](C)C[C@H](N(C)C)[C@H]2O)[C@](C)(O)C[C@H]1C [Compound 13] | > 128 µg/mL | MIC [3]: 0.25 µg/mL (≈ 0.286 µM); MIC [5]: 0.06 µg/mL (≈ 0.0687 µM); MIC [9]: 2 µg/mL (≈ 2.29 µM); MIC (Escherichia coli EC14; [14]): 128 µg/mL (≈ 147 µM)
14 | > 128 µg/mL | > 128 µg/mL | > 128 µg/mL | CCCCCCN[C@@H]1[C@H](C)[C@@H](O)[C@](C)(O)[C@@H](CC)OC(=O)[C@H](C)[C@@H](O[C@H]2C[C@@](C)(OC)[C@@H](O)[C@H](C)O2)[C@H](C)[C@@H](O[C@@H]2O[C@H](C)C[C@H](N(C)C)[C@H]2O)[C@](C)(O)C[C@H]1C [Compound 6, 9-Deoxo-9-(n-hexylamino)erythromycin] | – | –
15 | – | – | – | CC[C@H]1OC(=O)[C@H](C)[C@@H](O[C@H]2C[C@@](C)(OC)[C@@H](O)[C@H](C)O2)[C@H](C)[C@@H](O[C@@H]2O[C@H](C)C[C@H](N(C)C)[C@H]2O)[C@](C)(O)C[C@@H](C)[C@H]2[C@H](C)[C@@H](OCN2Cc2ccccc2)[C@]1(C)O [Compound 62, 9-Deoxo-9-[(benzyl)amino]-9,11-(N,O)-cyclic Methylene Adduct of Erythromycin] | – | MIC (Escherichia coli EC14; EC14, Table V, agar dilution, read-out: minimal inhibitory concentration (MIC)): > 128 µg/mL; MIC ([7]; Table V): > 128 µg/mL
16 | > 128 µg/mL | > 128 µg/mL | > 128 µg/mL | CCCN[C@@H]1[C@H](C)[C@@H](O)[C@](C)(O)[C@@H](CC)OC(=O)[C@H](C)[C@@H](O[C@H]2C[C@@](C)(OC)[C@@H](O)[C@H](C)O2)[C@H](C)[C@@H](O[C@@H]2O[C@H](C)C[C@H](N(C)C)[C@H]2O)[C@](C)(O)C[C@H]1C [Compound 3, 9-Deoxo-9-(n-propylamino)erythromycin] | – | –

Row | Structure (SMILES) | MIC [1, 12] | MIC [2, 13] | MIC [8] | MIC ([7]; Table IV) | further results
17 | CC[C@H]1OC(=O)[C@H](C)[C@@H](O[C@H]2C[C@@](C)(OC)[C@@H](O)[C@H](C)O2)[C@H](C)[C@@H](O[C@@H]2O[C@H](C)C[C@H](N(C)C)[C@H]2O)[C@](C)(O)C[C@@H](C)[C@H](NCCC(C)CCCC(C)(C)OC)[C@H](C)[C@@H](O)[C@]1(C)O (stereo partly shown) [Compound 24, 9-Deoxo-9-[(7-methoxy-3,7-dimethyloctyl)amino]erythromycin] | – | – | > 128 µg/mL | > 128 µg/mL | MIC [3]: 0.5 µg/mL (≈ 0.552 µM); MIC [4]: 0.25 µg/mL (≈ 0.276 µM); MIC [10]: 0.015 µg/mL (≈ 0.0166 µM); MIC [6]: 2 µg/mL (≈ 2.21 µM); MIC (Escherichia coli EC14; [14]): 128 µg/mL (≈ 141 µM)
18 | CC[C@H]1OC(=O)[C@H](C)[C@@H](O[C@H]2C[C@@](C)(OC)[C@@H](O)[C@H](C)O2)[C@H](C)[C@@H](O[C@@H]2O[C@H](C)C[C@H](N(C)C)[C@H]2O)[C@](C)(O)C[C@@H](C)[C@H](NCCCOC)[C@H](C)[C@@H](O)[C@]1(C)O [Compound 23, (9S)-9-Deoxo-9-[(3-methoxypropyl)amino]erythromycin] | > 128 µg/mL | > 128 µg/mL | > 128 µg/mL | – | MIC [3]: 2 µg/mL (≈ 2.48 µM); MIC [4]: 0.5 µg/mL (≈ 0.62 µM); MIC [10]: 0.125 µg/mL (≈ 0.155 µM); MIC [5]: 0.25 µg/mL (≈ 0.31 µM); MIC [6]: 8 µg/mL (≈ 9.91 µM)
